In patent US11254663B2 (BRISTOL-MYERS SQUIBB COMPANY, priority 2019, dated 2022):

Target: FXR (Homo sapiens (Human), UniProt Q96RI1)
Test: FXR EC50 (FXR agonist potency reported with each Example)
Assay type: cell-based

FXR, sequence (Q96RI1 262-486): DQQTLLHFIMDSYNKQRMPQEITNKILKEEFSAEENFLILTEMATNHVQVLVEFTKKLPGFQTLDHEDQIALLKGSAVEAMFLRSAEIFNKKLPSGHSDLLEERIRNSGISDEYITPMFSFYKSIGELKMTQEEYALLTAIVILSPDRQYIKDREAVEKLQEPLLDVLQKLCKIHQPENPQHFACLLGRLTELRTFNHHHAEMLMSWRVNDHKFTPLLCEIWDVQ

**Q.** For `CCCc1ncc(-c2cccc(N(CC34CCC(c5nc(C6CC6)no5)(CC3)CC4)C(=O)C3CC(F)(F)C3)c2)o1` [Example 27, N-((4-(3-cyclopropyl-1,2,4-oxadiazol-5-yl)bicyclo[2.2.2]octan-1-yl)methyl)-3,3-difluoro-N-(3-(2-propyloxazol-5-yl)phenyl)cyclobutane-1-carboxamide], which EC50 is on record?
**A.** 148 nM

**Q.** With `O=C(C1CC(F)(F)C1)N(CC12CCC(c3nc(C4CC4)cs3)(CC1)CC2)c1cccc(-c2nc(C3CC3)no2)c1` [Example 101, N-(3-(3-cyclopropyl-1,2,4-oxadiazol-5-yl)phenyl)-N-((4-(4-cyclopropylthiazol-2-yl)bicyclo[2.2.2]octan-1-yl)methyl)-3,3-difluorocyclobutane-1-carboxamide] as the compound, how does the EC50 read?
**A.** 635 nM

**Q.** For `CCOc1nnc(-c2cccc(N(CC34CCC(c5nc(C6CC6)no5)(CC3)CC4)C(=O)C3CC(C(F)F)C3)c2)o1` (stereo not shown) [Example 56, N-((4-(3-cyclopropyl-1,2,4-oxadiazol-5-yl)bicyclo[2.2.2]octan-1-yl)methyl)-3-(difluoromethyl)-N-(3-(5-ethoxy-1,3,4-oxadiazol-2-yl)phenyl)cyclobutane-1-carboxamide], which EC50 is on record?
**A.** 275 nM

**Q.** `O=C(N(CC12CCC(c3noc(C4CC4)n3)(CC1)CC2)c1cccc(-c2nc(C3CC3)no2)c1)C12CC(F)(C1)C2` [Example 116, N-((4-(5-cyclopropyl-1,2,4-oxadiazol-3-yl)bicyclo[2.2.2]octan-1-yl)methyl)-N-(3-(3-cyclopropyl-1,2,4-oxadiazol-5-yl)phenyl)-3-fluorobicyclo[1.1.1]pentane-1-carboxamide] was tested. Which EC50 did it give?
**A.** 117 nM

**Q.** For `CC(C)(C)c1nc(-c2cccc(N(CC34CCC(c5ccc(C(F)(F)F)cn5)(CC3)CC4)C(=O)C34CC(F)(C3)C4)c2)no1` [Example 188, N-(3-(5-(tert-butyl)-1,2,4-oxadiazol-3-yl)phenyl)-3-fluoro-N-((4-(5-(trifluoromethyl)pyridin-2-yl)bicyclo[2.2.2]octan-1-yl)methyl)bicyclo[1.1.1]pentane-1-carboxamide], which EC50 is on record?
**A.** 304 nM

**Q.** With `Cc1cc(C23CCC(CN(C(=O)C4CCC(F)(F)C4)c4cccc(-c5nc(C6CC6)no5)c4)(CC2)CC3)ccn1` (stereo not shown) [Example 33, N-(3-(3-cyclopropyl-1,2,4-oxadiazol-5-yl)phenyl)-3,3-difluoro-N-((4-(2-methylpyridin-4-yl)bicyclo[2.2.2]octan-1-yl)methyl)cyclopentane-1-carboxamide] as the compound, how does the EC50 read?
**A.** 4320 nM

**Q.** With `CO[C@H]1C[C@@H](C(=O)N(CC23CCC(c4nc(C(C)(C)C)no4)(CC2)CC3)c2cccc(-c3nc(C4CC4)no3)c2)C1` [Example 192, (1S,3S)—N-((4-(3-(tert-butyl)-1,2,4-oxadiazol-5-yl)bicyclo[2.2.2]octan-1-yl)methyl)-N-(3-(3-cyclopropyl-1,2,4-oxadiazol-5-yl)phenyl)-3-methoxycyclobutane-1-carboxamide] as the compound, how does the EC50 read?
**A.** 449 nM

**Q.** Which EC50 does the source give for `O=C(N(CC12CCC(c3nc(C4CC4)co3)(CC1)CC2)c1cccc(-c2cnc(C3CC3)o2)c1)C12CC(F)(C1)C2` [Example 82, N-((4-(4-cyclopropyloxazol-2-yl)bicyclo[2.2.2]octan-1-yl)methyl)-N-(3-(2-cyclopropyloxazol-5-yl)phenyl)-3-fluorobicyclo[1.1.1]pentane-1-carboxamide] here?
**A.** 48 nM

**Q.** For `O=C(N(CC12CCC(c3ccc(C(F)(F)F)cn3)(CC1)CC2)c1cccc(-c2noc(C3CC3)n2)c1)C12CC(F)(C1)C2` [Example 185, N-(3-(5-cyclopropyl-1,2,4-oxadiazol-3-yl)phenyl)-3-fluoro-N-((4-(5-(trifluoromethyl)pyridin-2-yl)bicyclo[2.2.2]octan-1-yl)methyl)bicyclo[1.1.1]pentane-1-carboxamide], which EC50 is on record?
**A.** 508 nM

**Q.** With `CCOc1nnc(-c2cccc(N(CC34CCC(c5nc(C6CC6)no5)(CC3)CC4)C(=O)C3CCC3)c2)o1` [Example 54, N-((4-(3-cyclopropyl-1,2,4-oxadiazol-5-yl)bicyclo[2.2.2]octan-1-yl)methyl)-N-(3-(5-ethoxy-1,3,4-oxadiazol-2-yl)phenyl)cyclobutanecarboxamide] as the compound, how does the EC50 read?
**A.** 215 nM
